In patent US10858339B2, “Aryl cyclopropyl-amino-isoquinolinyl amide compounds” (priority 2017, dated 2020):
Counter-ions that a name gives are not always drawn.

Columns and labels:
[1] = target: ROCK1 (Homo sapiens, UniProt Q13464); assay: ROCK kinase inhibition assay, ROCK1 enzyme; assay type: biochemical;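 also: kinase reaction with 0.5 µM final ATP, 75 min at room temperature, remaining ATP read by luminescence, percent of DMSO-only control minus background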
[2] = target: ROCK2 (Homo sapiens, UniProt O75116); assay: biochemical
[3] = target: Rho Kinase; assay: ROCK kinase inhibition assay (Rho Kinase Activity, isoform not given); assay type: biochemical; conditions: Table 15, mostly given as ranges
Procedure: All compounds were initially prepared as 10 mM stocks in anhydrous dimethylsulfoxide (DMSO). A 20 μl aliquot of the 10 mM solutions was transferred to individual wells in column 1 of a 96-well polypropylene microtiter plate (Corning #3363) and diluted with DMSO to give a final compound concentration of 4 mM. Test compounds were then serially diluted 1:5 in DMSO for an 11-point concentration response and further diluted in the assay buffer bringing all compound concentrations to a final range of 100 μM to […] in 2.5% DMSO. The assay was performed in white 96-well, flat-bottom, half-area, non-binding assay plate (Corning #3642) in assay buffer consisting of 20 mM HEPES (pH 7.5), 10 mM MgCl2*6H2O, 100 μM sodium orthovanadate, 0.05% CHAPS and 0.1% bovine serum albumin. A 10 μL aliquot of compound from each well of the intermediate dilution plate and 20 μL of a 2× substrate/enzyme solution containing acceptor substrate (800 nM RSK2 peptide […] (SEQ ID NO: 1)), ROCK2 enzyme (10 nM), or ROCK1 enzyme, and 1,4-Dithiothreitol (DTT, 2 uM) were added to all wells. The reaction was initiated by the addition of 10 μL of 4× stock solution ATP (2 μM). Reactions were thoroughly mixed manually, covered and allowed to incubate at room temperature for 75 min. Protein kinase activity was quantitated using Promega's KINASE-GLO™ luminescent Kinase Assay Kit according to the manufacturer's directions. ATP concentrations remaining in Test wells following the termination of the enzymatic reaction were compared against control wells containing equivalent amounts of DMSO containing no inhibitor (CTRL). […] Percent of Control (POC) values were determined for each concentration of compound tested according to the equation: POC=((Test well value−BKG)/(CTRL−BKG))*100
IC50 values were converted to K; […]

[4] = target: JAK2 (Homo sapiens, UniProt O60674); assay: JAK kinase assay, JAK2 enzyme; assay type: biochemical; conditions: for Ki: Table 15, in brackets in the activity cell, read-out: JAK2 activity;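 as to all read-outs here: JAK2 kinase reaction run 75 min at room temperature, leftover ATP read by Kinase-Glo luminescence, 11-point dilution series in 2.5% DMSO, percent of inhibitor-free DMSO control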
JAK2, sequence (O60674 whole entry, species assumed): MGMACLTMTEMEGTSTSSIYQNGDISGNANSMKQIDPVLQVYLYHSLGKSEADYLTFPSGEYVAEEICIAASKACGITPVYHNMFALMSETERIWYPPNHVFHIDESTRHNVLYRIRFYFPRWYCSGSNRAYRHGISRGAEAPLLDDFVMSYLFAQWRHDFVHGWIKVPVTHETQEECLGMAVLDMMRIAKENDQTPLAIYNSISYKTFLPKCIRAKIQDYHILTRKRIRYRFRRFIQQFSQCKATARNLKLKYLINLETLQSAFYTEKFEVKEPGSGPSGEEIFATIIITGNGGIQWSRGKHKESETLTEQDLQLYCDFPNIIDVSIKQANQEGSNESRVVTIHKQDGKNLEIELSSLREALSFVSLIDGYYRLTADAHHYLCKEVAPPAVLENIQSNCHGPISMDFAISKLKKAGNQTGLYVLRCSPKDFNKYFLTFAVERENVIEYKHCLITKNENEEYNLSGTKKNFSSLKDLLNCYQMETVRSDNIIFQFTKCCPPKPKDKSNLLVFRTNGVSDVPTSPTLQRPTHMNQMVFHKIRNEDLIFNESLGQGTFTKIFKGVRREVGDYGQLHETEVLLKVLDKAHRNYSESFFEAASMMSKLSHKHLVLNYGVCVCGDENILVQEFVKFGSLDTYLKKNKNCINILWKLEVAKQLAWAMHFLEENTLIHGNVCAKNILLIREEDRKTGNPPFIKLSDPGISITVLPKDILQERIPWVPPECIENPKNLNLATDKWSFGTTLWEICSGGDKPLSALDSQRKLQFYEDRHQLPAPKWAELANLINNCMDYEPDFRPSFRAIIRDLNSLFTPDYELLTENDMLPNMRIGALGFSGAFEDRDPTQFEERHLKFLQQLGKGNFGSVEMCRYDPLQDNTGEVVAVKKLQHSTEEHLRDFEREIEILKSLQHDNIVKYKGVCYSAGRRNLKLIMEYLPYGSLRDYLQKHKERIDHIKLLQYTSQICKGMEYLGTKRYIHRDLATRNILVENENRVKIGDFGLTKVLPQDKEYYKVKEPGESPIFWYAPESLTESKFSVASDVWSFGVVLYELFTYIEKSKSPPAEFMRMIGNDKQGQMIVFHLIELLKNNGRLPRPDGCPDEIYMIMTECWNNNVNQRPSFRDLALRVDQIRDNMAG

ROCK1, sequence (Q13464 whole entry, species assumed): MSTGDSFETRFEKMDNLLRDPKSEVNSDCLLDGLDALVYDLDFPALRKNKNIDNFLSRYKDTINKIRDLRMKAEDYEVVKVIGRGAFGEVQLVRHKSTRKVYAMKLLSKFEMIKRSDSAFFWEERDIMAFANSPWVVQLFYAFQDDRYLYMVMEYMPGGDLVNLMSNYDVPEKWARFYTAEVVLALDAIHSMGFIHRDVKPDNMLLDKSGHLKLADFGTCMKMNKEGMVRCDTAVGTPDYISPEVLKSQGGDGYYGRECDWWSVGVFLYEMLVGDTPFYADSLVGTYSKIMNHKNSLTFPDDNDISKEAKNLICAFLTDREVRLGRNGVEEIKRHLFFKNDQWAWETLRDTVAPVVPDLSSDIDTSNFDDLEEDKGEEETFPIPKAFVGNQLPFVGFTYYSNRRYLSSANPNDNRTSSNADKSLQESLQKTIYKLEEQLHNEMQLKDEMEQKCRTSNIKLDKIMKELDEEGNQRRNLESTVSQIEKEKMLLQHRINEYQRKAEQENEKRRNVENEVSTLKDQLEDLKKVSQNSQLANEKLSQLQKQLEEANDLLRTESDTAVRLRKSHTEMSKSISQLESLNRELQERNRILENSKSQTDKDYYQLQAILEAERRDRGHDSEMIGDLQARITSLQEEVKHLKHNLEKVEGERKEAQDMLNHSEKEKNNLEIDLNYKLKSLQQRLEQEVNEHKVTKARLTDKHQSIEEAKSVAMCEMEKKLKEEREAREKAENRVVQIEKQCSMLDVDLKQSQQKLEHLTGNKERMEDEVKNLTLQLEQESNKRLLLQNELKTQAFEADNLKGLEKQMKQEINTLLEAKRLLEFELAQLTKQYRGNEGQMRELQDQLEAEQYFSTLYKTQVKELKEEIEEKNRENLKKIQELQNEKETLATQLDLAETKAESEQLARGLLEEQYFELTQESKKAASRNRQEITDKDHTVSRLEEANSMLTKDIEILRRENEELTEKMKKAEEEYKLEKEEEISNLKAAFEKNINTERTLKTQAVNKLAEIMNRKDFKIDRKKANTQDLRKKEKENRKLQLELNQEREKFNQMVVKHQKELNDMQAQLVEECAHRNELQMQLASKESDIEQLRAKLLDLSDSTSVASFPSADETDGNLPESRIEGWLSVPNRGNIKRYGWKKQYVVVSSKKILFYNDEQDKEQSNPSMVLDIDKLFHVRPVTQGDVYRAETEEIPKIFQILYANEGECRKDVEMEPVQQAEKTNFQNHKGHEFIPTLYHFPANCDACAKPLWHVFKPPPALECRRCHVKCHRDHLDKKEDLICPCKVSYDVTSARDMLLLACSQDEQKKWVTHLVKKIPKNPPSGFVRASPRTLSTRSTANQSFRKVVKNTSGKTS
ROCK2, sequence (O75116 whole entry, species assumed, canonical isoform): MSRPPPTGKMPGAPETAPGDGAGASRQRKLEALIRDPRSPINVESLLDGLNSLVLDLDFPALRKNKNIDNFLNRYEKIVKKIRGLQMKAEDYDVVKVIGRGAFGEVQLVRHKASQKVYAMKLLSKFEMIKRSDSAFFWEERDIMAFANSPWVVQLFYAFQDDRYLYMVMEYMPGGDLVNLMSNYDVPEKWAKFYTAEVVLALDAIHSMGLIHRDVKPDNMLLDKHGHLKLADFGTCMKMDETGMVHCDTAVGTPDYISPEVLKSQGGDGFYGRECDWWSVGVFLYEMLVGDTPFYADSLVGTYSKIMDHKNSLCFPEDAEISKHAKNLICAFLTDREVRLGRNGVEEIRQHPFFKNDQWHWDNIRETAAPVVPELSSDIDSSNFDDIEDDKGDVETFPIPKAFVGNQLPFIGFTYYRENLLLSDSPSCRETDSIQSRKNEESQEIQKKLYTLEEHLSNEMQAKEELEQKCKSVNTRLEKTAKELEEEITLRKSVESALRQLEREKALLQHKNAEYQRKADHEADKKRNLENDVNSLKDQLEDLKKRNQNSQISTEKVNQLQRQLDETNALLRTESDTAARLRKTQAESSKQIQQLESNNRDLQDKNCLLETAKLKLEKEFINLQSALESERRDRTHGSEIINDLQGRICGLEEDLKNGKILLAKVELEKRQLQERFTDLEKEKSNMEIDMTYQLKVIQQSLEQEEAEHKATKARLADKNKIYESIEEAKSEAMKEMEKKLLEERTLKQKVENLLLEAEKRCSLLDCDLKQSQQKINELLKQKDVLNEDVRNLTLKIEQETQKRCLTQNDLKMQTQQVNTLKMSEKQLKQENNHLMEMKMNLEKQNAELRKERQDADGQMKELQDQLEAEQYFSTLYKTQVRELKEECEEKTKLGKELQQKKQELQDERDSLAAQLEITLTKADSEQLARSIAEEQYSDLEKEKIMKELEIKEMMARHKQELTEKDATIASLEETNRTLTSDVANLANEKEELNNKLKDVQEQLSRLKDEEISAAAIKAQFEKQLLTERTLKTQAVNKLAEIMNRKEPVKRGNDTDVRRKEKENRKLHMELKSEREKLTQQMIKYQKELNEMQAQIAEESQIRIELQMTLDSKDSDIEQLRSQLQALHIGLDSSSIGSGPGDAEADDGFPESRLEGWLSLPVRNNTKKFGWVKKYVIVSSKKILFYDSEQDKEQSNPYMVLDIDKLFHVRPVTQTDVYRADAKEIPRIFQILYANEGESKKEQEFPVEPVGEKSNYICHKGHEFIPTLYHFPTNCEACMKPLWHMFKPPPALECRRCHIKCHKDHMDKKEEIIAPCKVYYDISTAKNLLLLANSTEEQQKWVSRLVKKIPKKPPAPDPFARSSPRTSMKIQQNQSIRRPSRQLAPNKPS

| SMILES | Ki [3] [nM] | Ki [4] [nM] | further results |
| --- | --- | --- | --- |
| O=C(Nc1ccc2cnccc2c1)[C@@H]1C[C@H]1c1ccc(S(=O)(=O)Nc2ccccc2)cc1 (racemic) [(rel)-(1R,2R)-N-(isoquinolin-6-yl)-2-(4-(N-phenylsulfamoyl)phenyl)cyclopropane-1-carboxamide] |  |  | Ki ([1]; ROCK1, Table 17): 154 nM; Ki ([2]; ROCK2, Table 17): 75 nM |
| O=C(OCc1ccccc1)c1ccc(C2CC2C(=O)Nc2cc3ccncc3cc2Cl)cc1 (stereo not drawn) [Example E104.1] | 15 to 75 |  | JAK2 activity [4]: inactive |
| O=C(Nc1ccc2cnccc2c1)[C@@H]1C[C@H]1c1ccc(S(=O)(=O)NC[C@H]2CCCNC2)cc1 [Example E272] |  |  | Ki ([1]; ROCK1, Table 16): 5 nM; Ki ([2]; ROCK2, Table 16): 5 nM |
| O=C(Nc1ccc2cnccc2c1)[C@@H]1C[C@H]1c1ccc(S(=O)(=O)NC[C@H]2CCCNC2)cc1 (relative stereo) [(rel)-(1R,2R)-N-(isoquinolin-6-yl)-2-(4-(N-(((S)-piperidin-3-yl)methyl)sulfamoyl)phenyl) cyclopropane-1-carboxamide dihydrochloride] |  |  | Ki ([1]; ROCK1, Table 17): 5 nM; Ki ([2]; ROCK2, Table 17): 5 nM |
| CC(C)(C)OC(=O)N1CCC(CNC(=O)c2ccc(C3CC3C(=O)Nc3ccc4cnccc4c3)cc2)CC1 (stereo not drawn) [Example E29.1] | 0.5 to 1 | 1000 to 6000 |  |
| O=C(Nc1ccc2cnccc2c1)[C@@H]1C[C@H]1c1ccc(S(=O)(=O)N2CCNCC2)cc1 [Example E276] |  |  | Ki ([1]; ROCK1, Table 16): 48 nM; Ki ([2]; ROCK2, Table 16): 31 nM |
| O=C(Nc1ccc2cnccc2c1)[C@@H]1C[C@H]1c1ccc(S(=O)(=O)NC2CCNCC2)cc1 [Example E275] |  |  | Ki ([1]; ROCK1, Table 16): 8.2 nM; Ki ([2]; ROCK2, Table 16): 7 nM |
| O=C(Nc1ccc2cnccc2c1)[C@@H]1C[C@H]1c1ccc(S(=O)(=O)NCC2CCNCC2)cc1 [Example E271] |  |  | Ki ([1]; ROCK1, Table 16): 9 nM; Ki ([2]; ROCK2, Table 16): 8 nM |
| O=C(Nc1ccc2cnccc2c1)[C@@H]1C[C@H]1c1cccc(S(=O)(=O)Nc2ccccn2)c1 [Example E279] |  |  | Ki ([1]; ROCK1, Table 16): 11 nM |
| O=C(Nc1ccc2cnccc2c1)[C@@H]1C[C@H]1c1ccc(S(=O)(=O)Nc2cccnc2)cc1 [Example E268] |  |  | Ki ([1]; ROCK1, Table 16): 85 nM; Ki ([2]; ROCK2, Table 16): 24 nM |
| CC(C)(C)OC(=O)N1CCC[C@@H](CNC(=O)c2ccc([C@@H]3C[C@H]3C(=O)Nc3ccc4cnccc4c3)cc2)C1 [Example E57.1] | 0.15 to 1 | 45 to 65 |  |
| O=C(NCC1CCCN1)c1ccc(C2CC2C(=O)Nc2ccc3cnccc3c2)cc1 (stereo not drawn) [Example E19.2] | 6 to 12 | 300 to 350 |  |
| O=C(Nc1ccc2cnccc2c1)[C@@H]1C[C@H]1c1ccc(S(=O)(=O)NCc2cccnc2)cc1 [Example E269] |  |  | Ki ([1]; ROCK1, Table 16): 25 nM; Ki ([2]; ROCK2, Table 16): 9 nM |
| O=C(Nc1ccc2cnccc2c1)[C@@H]1C[C@H]1c1ccc(S(=O)(=O)Nc2cccnc2)cc1 [drawing 658] |  |  | Ki ([1]; ROCK1, Table 17): 85 nM; Ki ([2]; ROCK2, Table 17): 24 nM |
| O=C(NCC1CCNC1)c1ccc(C2CC2C(=O)Nc2ccc3cnccc3c2)cc1 (stereo not drawn) [Example E20.2] | 4 to 6 | 27 to 150 |  |
| O=C(Nc1ccc2cnccc2c1)[C@@H]1C[C@H]1c1ccc(S(=O)(=O)N2CCNCC2)cc1 (relative stereo) [(rel)-(1R,2R)-N-(isoquinolin-6-yl)-2-(4-(piperazin-1-ylsulfonyl)phenyl) cyclopropane-1-carboxamide dihydrochloride] |  |  | Ki ([1]; ROCK1, Table 17): 48 nM; Ki ([2]; ROCK2, Table 17): 31 nM |
| O=C(Nc1ccc2cnccc2c1)[C@@H]1C[C@H]1c1ccc(S(=O)(=O)NC2CCNCC2)cc1 (relative stereo) [(rel)-(1R,2R)-N-(isoquinolin-6-yl)-2-(4-(N-(piperidin-4-yl)sulfamoyl)phenyl) cyclopropane-1-carboxamide dihydrochloride] |  |  | Ki ([1]; ROCK1, Table 17): 8.2 nM; Ki ([2]; ROCK2, Table 17): 7 nM |
| O=C(Nc1ccc2cnccc2c1)[C@@H]1C[C@H]1c1ccc(S(=O)(=O)Nc2ccccc2)cc1 [Example E265] |  |  | Ki ([1]; ROCK1, Table 16): 154 nM; Ki ([2]; ROCK2, Table 16): 75 nM |
| CC(C)(C)OC(=O)c1ccc(C2CC2C(=O)Nc2ccc3cnccc3c2)cc1 (stereo not drawn) [Example E191.1] | 105 to 155 | 5200 |  |
| O=C(NCc1cccnc1)c1ccc([C@@H]2C[C@H]2C(=O)Nc2ccc3cnccc3c2F)cc1 [Example E56.1] | 0.1 to 0.5 | 40 to 75 |  |
| O=C(NC[C@@H]1CCCNC1)c1ccc([C@@H]2C[C@H]2C(=O)Nc2ccc3cnccc3c2)cc1 [Example E57.2] | 0.1 to 1 | 7 |  |

Continued, in another order:

| Ki [3] [nM] | Ki [4] [nM] | SMILES | further results |
| --- | --- | --- | --- |
| 5 to 75 | 2500 to 9000 | O=C(NCc1ccc(C(F)(F)F)cc1)c1ccc(C2CC2C(=O)Nc2ccc3cnccc3c2)cc1 (stereo not drawn) [Example E16] |  |
| 6 to 8 | 110 | COc1ccc(CNC(=O)c2ccc([C@@H]3C[C@H]3C(=O)Nc3ccc4cnccc4c3)c(F)c2)cc1 (relative stereo) [Example E193, trans-3-fluoro-4-(2-(isoquinolin-6-ylcarbamoyl)cyclopropyl)-N-(4-methoxybenzyl)benzamide] |  |
| 1 to 10 | 200 | O=C(NCc1cccnc1)c1ccc([C@@H]2C[C@H]2C(=O)Nc2ccc3cnccc3c2)cc1 (relative stereo) [Example E8, trans-4-(2-(isoquinolin-6-ylcarbamoyl)cyclopropyl)-N-(pyridin-3-ylmethyl)benzamide] |  |
| 0.5 to 3 | 40 to 120 | O=C(NCc1cccnc1)c1ccc([C@@H]2C[C@H]2C(=O)Nc2ccc3cnccc3c2)cc1 [Example E56] |  |
| 0.5 to 8 | 300 to 950 | O=C(NCc1cccnc1)c1ccc(C2CC2C(=O)Nc2ccc3cnccc3c2F)cc1 (stereo not drawn) [Example E35] |  |
| 1 to 2 | 15 to 90 | O=C(NCc1ccccn1)c1ccc([C@@H]2C[C@H]2C(=O)Nc2ccc3cnccc3c2)cc1 [Example E54, 4-((1R,2R)-2-(isoquinolin-6-ylcarbamoyl)cyclopropyl)-N-(pyridin-2-ylmethyl)benzamide] |  |
| 0.7 to 1 | 200 | O=C(NCc1cccnc1)c1cccc(C2CC2C(=O)Nc2ccc3cnccc3c2)c1 (stereo not drawn) [Example E173] |  |
| 190 to 250 | 1300 to 2700 | O=C(Nc1ccccc1Cl)OCc1ccc(C2CC2C(=O)Nc2ccc3cnccc3c2)cc1 (stereo not drawn) [Example E143] |  |
| 3 to 5 | 65 to 100 | O=C(NCc1ccccn1)c1ccc(C2CC2C(=O)Nc2ccc3cnccc3c2)cc1 (stereo not drawn) [Example E9] |  |
| 20 to 50 | 270 | O=Cc1ccc([C@@H]2C[C@H]2C(=O)Nc2ccc3cnccc3c2)cc1 (racemic) [Example E159, trans-2-(4-formylphenyl)-N-(isoquinolin-6-yl)cyclopropane-1-carboxamide] |  |
| 20 to 130 | 1600 to 5000 | O=C(OCc1ccccc1)c1ccc([C@@H]2C[C@H]2C(=O)Nc2ccc3cnccc3c2)cc1 (relative stereo) [Example E96, trans-benzyl 4-(2-(isoquinolin-6-ylcarbamoyl)cyclopropyl)benzoate] |  |
| 7 to 9.5 | 136 | O=C(NCCO)c1ccc(C2CC2C(=O)Nc2ccc3cnccc3c2)cc1 (stereo not drawn) [Example E38] |  |
| 0.5 to 6 | 250 to 600 | O=C(OCc1ccccn1)c1ccc([C@@H]2C[C@H]2C(=O)Nc2ccc3cnccc3c2)cc1 (racemic) [Example E99, trans-pyridin-2-ylmethyl 4-(2-(isoquinolin-6-ylcarbamoyl)cyclopropyl) benzoate] |  |
| 4.3 to 9 | 800 | CN(C)CCNC(=O)c1ccc(C2CC2C(=O)Nc2ccc3cnccc3c2)cc1 (stereo not drawn) [Example E37] |  |
| 30 to 60 | 1500 to 3500 | CC(C)(C)OC(=O)N1CCCC1CNC(=O)c1ccc(C2CC2C(=O)Nc2ccc3cnccc3c2)cc1 (stereo not drawn) [Example 19.1] |  |
| 40 to 75 | 3000 to 5000 | O=C(OCc1ccccc1)c1ccc([C@@H]2C[C@H]2C(=O)Nc2ccc3cnccc3c2)cc1 [Example E115, benzyl 4-((1R,2R)-2-(isoquinolin-6-ylcarbamoyl)cyclopropyl)benzoate] |  |
| 1 to 4 | 400 | O=C(Nc1ccncc1)c1ccc(C2CC2C(=O)Nc2ccc3cnccc3c2)cc1 (stereo not drawn) [Example E12] |  |
| 125 to 185 | 3000 | CC(C)(C)OC(=O)c1ccc([C@@H]2C[C@H]2C(=O)Nc2ccc3cnccc3c2)c(F)c1 (relative stereo) [Example E191, trans-tert-butyl 3-fluoro-4-(2-(isoquinolin-6-ylcarbamoyl)cyclopropyl)benzoate] |  |
| 165 to 215 | 1000 | C[C@@H]1OC(c2ccc(C3CC3C(=O)Nc3ccc4cnccc4c3)cc2)O[C@@H]1C (stereo partly drawn) [Example E158, trans-2-(4-((4S,5S)-4,5-dimethyl-1,3-dioxolan-2-yl)phenyl)-N-(isoquinolin-6-yl)cyclopropane-1-carboxamide] |  |
| 5 to 7 | 400 | O=C(NCCN1CCCCC1)c1ccc(C2CC2C(=O)Nc2ccc3cnccc3c2)cc1 (stereo not drawn) [Example E39] |  |
